For the assay, the system named is cellulose fungal decay. As to the kind of experiment: Inground testing of cement-treated pulp sheets, subjective visual rating for deterioration (biodurability). More on the design: species or system fungi. Conditions: for biological protection: summary statement in Example 2. As for the experimental part:
Samples for testing were prepared by obtaining unbleached mixed conifer kraft pulp sheets produced in an interior British Columbia mill. […] Solutions of various biocides were made up so that the desired ultimate concentration of active material would be obtained by spraying each sample portion of pulp sheet with about 1 g of the biocidal solution per gram of pulp. […] Subsequently the treated sheets were reslurried in water having a pH ˜12 obtained from a cement board manufacturing facility and refined to a Canadian Standard Freeness (CSF) level of 450 mL. All refining was done in a pilot scale Model 202 Claflin refiner (available from Bolton-Emerson, Inc., Lawrence, Mass.). The treated and refined pulp was dewatered by centrifuging to a consistency of about 30% and then pin fluffed to ensure uniformity.
Treatments included copper sulfate at concentrations of 0.1, 0.3, and 0.5% Cu w/w based on dry pulp; zinc sulfate at concentrations of 0.1%, 0.3%, and 0.6% Zn; 0.2% propiconazole emulsion; didecyldimethylammonium chloride (DDAC) 0.2%, 0.5%; and 1.0%, and 1.0% DDAB. Treated fibers were also made using 1.0% DDAC with 0.05%, 0.10%, and 0.2% Cu added as copper sulfate. All concentrations are on a weight/weight basis.
Samples of 30 g of the treated pulps were reslurried in water and formed into sheets in an 8×8 inch (203×203 mm) sheet. The sheets were pressed to remove excess moisture then air dried. Each sheet was then cut in half and dipped for 30 seconds in a slurry of one part Portland cement in three parts by weight water. The coated and impregnated sheets were removed and drained, allowed to cure for two days wet, and then air dried. Each 4×8 inch ([…] mm) cement treated sheet was then enclosed in a 20 mesh stainless steel screen and half buried in the ground at a test site at Hilo, Hi. Samples were then removed after three month, six month, nine month, and twelve month periods for examination. Exposed sheets were assigned a subjective rating for deterioration based on visual observation (3=sound and 0=complete deterioration). The exposed sheets were also examined microscopically to determine the presence of fungal mycelium and cell wall deterioration. […] 1

In the case of `CCCCCCCCCC[N+](C)(C)CCCCCCCCCC.[Br-]` [DDAB, didecyldimethylammonium bromide], the below ground protection entry (DDAB at 1% (lower concentrations not tested)) is listed as “effective below ground protection”.

Take `CCCCCCCCCC[N+](C)(C)CCCCCCCCCC.[Cl-]` [DDAC, didecyldimethylammonium chloride]: the below ground protection result (DDAC at 0.5% or greater) is given as “effective below ground protection”.

As for `O=S(=O)([O-])[O-].[Zn+2]` [Zinc compounds, zinc sulfate], the biological protection entry is given as “poor”. For the same compound, the decay protection result (at any concentration tested) is reported as “did not give effective decay protection”.

As to `O=S(=O)([O-])[O-].[Cu+2]` [copper, copper sulfate], where the note is “after the one year underground tests”, the “reducing cellulose fungal decay” value was “effective in reducing cellulose fungal decay”. For the setting “copper at concentrations of 0.3% or greater”, the below ground protection result is “effective below ground protection”.

For the compound `CCCC1COC(Cn2cncn2)(c2ccc(Cl)cc2Cl)O1` (centres unmarked) [propiconazole], the biological protection result is on record as “poor”. Further, the decay protection entry (at 0.2%) is “did not give effective decay protection”.

The values above are taken from US7300546B2, “Cellulose fiber having improved biostability and the resulting products” (Weyerhaeuser Company, priority 2000, dated 2007).
